The values below come from patent US20110039892A1, “IMINOPYRIDINE DERIVATIVE AND USE THEREOF” (TAKEDA PHARMACEUTICAL COMPANY LIMITED, priority 2008, published 2011).

The target of this experiment is T1, human α1D adrenergic receptor (Homo sapiens, UniProt P25100).
T1 construct: expressed in transfected cells; membrane fraction used
T1 sequence (P25100 1-572): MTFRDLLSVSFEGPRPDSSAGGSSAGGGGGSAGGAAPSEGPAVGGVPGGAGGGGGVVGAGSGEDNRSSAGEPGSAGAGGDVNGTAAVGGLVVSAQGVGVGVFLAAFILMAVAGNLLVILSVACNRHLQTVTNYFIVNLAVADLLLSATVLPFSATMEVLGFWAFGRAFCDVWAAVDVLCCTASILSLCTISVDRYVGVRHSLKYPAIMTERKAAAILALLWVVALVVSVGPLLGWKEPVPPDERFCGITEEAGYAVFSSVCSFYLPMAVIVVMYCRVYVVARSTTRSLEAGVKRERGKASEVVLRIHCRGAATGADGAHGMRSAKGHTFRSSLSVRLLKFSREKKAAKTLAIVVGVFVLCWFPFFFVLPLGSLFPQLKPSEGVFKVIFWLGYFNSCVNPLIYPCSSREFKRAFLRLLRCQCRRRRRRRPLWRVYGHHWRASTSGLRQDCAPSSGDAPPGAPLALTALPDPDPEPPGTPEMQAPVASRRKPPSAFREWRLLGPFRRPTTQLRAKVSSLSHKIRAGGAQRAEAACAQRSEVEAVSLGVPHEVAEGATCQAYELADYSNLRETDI
The experiment is described as follows: Measurement of α1D adrenergic receptor binding inhibitory activity ([3H]-prazosin binding to membrane fraction of CHO-K1 cells expressing the receptor). The note with it: compound at 1 μM; [3H]-prazosin 2.5 nM; membrane fraction 20 μg/well; room temperature, 1 hr; read-out: Binding inhibitory rate (%) (α1D adrenergic receptor binding inhibitory rate). The protocol:
Measurement of α1D Adrenergic Receptor Binding Inhibitory Activity
(i) Preparation of Human α1D Adrenergic Receptor Expression Plasmid
α1D Adrenergic Receptor Gene was Cloned from Human Liver cDNA by the PCR method. PCR reaction was performed by Gene Amp PCR System 9700 (Applied Biosystems) with 50 pmol each of the primer set 5′-[…]-3′ [SEQ ID NO: 1] and 5′-[…]-3′ [SEQ ID NO: 2] prepared in reference to the base sequence of the α1D adrenergic receptor gene reported by DEBRA A. et al. (J. Pharamacol. Exp. Ter., 272, 134-142 (1995)), 200 ng of human brain hippocampus cDNA library (Takara Shuzo Co., Ltd.) as a template and TaKaRa LA-Taq DNA Polymerase (Takara Shuzo Co., Ltd.) (reaction conditions: 45 cycles of 94° C. for 15 sec, 68° C. for 3.5 min).
The PCR fragment obtained above was digested with restriction enzymes NheI (Takara Shuzo Co., Ltd.) and Kpn I (Takara Shuzo Co., Ltd.), and applied to agarose gel electrophoresis to recover DNA fragments. The DNA fragments were ligated with animal cell expression plasmid pcDNA3.1/Zeo (Invitrogen) digested with NheI and Kpn I, by DNA Ligation Kit Ver. 2 (Takara Shuzo Co., Ltd.), and transformed the competent cells of Escherichia coli JM109 to obtain plasmid, pcDNA3.1/Zeo-Adreα1D.
(ii) Introduction of Human α1D Adrenergic Receptor Expression Plasmid into CHO-K1 Cells and Preparation of Membrane Fraction
CHO-K1 cells passage cultured in HamF12 medium (Invitrogen) containing 10% fetal bovine serum (TRACE SCIENCETIFIC) in a 150 cm^2 culture flask (Corning Coaster) were detached with 0.5 g/L trypsin-0.2 g/L EDTA (Invitrogen), and the cells were washed with D-PBS(−) (Invitrogen) and centrifuged (1000 rpm, 5 min). Then, using Gene Pulser II (BioRad), DNA was introduced into the cells under the following conditions. 1×10^7 cells suspended in D-PBS(−) (700 μl) and 10 μg of pcDNA3.1/Zeo-Adreα1D were added in a 0.4 cm gap cuvette (BioRad), and electroporation was performed under voltage 0.25 kV, capacitance 960 μF. The cells were cultured in HamF12 medium containing 10% fetal bovine serum and 250 μg/mL Zeocin (Invitrogen) and the Zeocin resistance clones were selected.
Plurality of Zeocin resistance clones were selected and cultured in a cell culture flask (150 cm^2) until semiconfluent, and the cellular membrane fraction was prepared as follows.
The semiconfluent cells were detached with 0.02% EDTA containing D-PBS(−) and recovered by centrifugation. The cells were suspended in membrane preparation buffer (10 mM NaHCO3 pH 7.4, protease inhibitor cocktail (Roche)) and disrupted by 3 times of treatment in a polytron homogenizer (model PT-3100, KINEMATICA AG) at 20000 rpm for 20 seconds. After disruption, the cells were centrifuged at 2000 rpm for 10 min and the supernatant containing membrane fractions was obtained. The supernatant was centrifuged using an ultracentrifuge (model L8-70M, rotor 70 Ti, Beckman Instruments) at 30000 rpm for 1 hr to obtain a precipitate containing membrane fractions. The obtained membrane fraction of each clone was subjected to the binding experiment shown below.
The membrane fraction (20 μg/well) and [^3H]-prazosin (2.5 nM, PerkinElmer Lifescience), as a ligand, were diluted with a binding assay buffer (50 mM Tris-HCl, 10 mM MgCl2, 0.5% BSA, protease inhibitor cocktail pH 7.5), added to a 96 well microplate, and reacted at room temperature for 1 hr. For the measurement of non-specific binding, phentolamine (Sigma) was further added to 10 μM. Then, the reaction mixture was filtered and transferred to unifilter GF/C (PerkinElmer Lifescience) by using a cell harvester (PerkinElmer Lifescience). The filter was washed 3 times with ice-cooled 50 mM Tris buffer (pH 7.5). After drying the filter, MicroScinti 0 (PerkinElmer Lifescience) was added to the filter and the radioactivity was measured by TopCount (PerkinElmer Lifescience).
(iii) Evaluation of Example Compound […]

Where a name gives a salt, the structure may show the parent alone.

For `CC(c1cccc(Cl)c1)n1cc(Cl)cc(C(N)=O)c1=N` (stereo not shown) [Example 1, 5-chloro-1-[1-(3-chlorophenyl)ethyl]-2-imino-1,2-dihydropyridine-3-carboxamide], the inhibition at 1 µM came out at 100%.
In the case of `N=c1c(C(N)=O)cc(Cl)cn1C1CCc2ccc(Cl)cc21` (stereo not shown) [Example 2, 5-chloro-1-(6-chloro-2,3-dihydro-1H-inden-1-yl)-2-imino-1,2-dihydropyridine-3-carboxamide] it was 102%; in that of `CC(c1ccsc1)n1cc(Cl)cc(C(N)=O)c1=N` (stereo not shown) [Example 5, 5-chloro-2-imino-1-(1-(thiophen-3-yl)ethyl)-1,2-dihydropyridine-3-carboxamide hydrochloride], 79.4%; in that of `C[C@H](c1cccc(F)c1)n1cc(Cl)cc(C(N)=O)c1=N` [Example 12, 5-chloro-1-[(1R)-1-(3-fluorophenyl)ethyl]-2-imino-1,2-dihydropyridine-3-carboxamide hydrochloride], 97%.
Take `C[C@H](c1cc(F)cc(F)c1)n1cc(Cl)cc(C(N)=O)c1=N` [Example 14, 5-chloro-1-[(1R)-1-(3,5-difluorophenyl)ethyl]-2-imino-1,2-dihydropyridine-3-carboxamide hydrochloride]: the inhibition at 1 µM is 100%.
For the compound `N=c1c(C(N)=O)cc(Cl)cn1C1(c2ccccc2)CC1` [Example 15, 5-chloro-2-imino-1-(1-phenylcyclopropyl)-1,2-dihydropyridine-3-carboxamide], the inhibition at 1 µM was determined as 62%.
In the case of `N#Cc1ccc2c(c1)C(n1cc(Cl)cc(C(N)=O)c1=N)CC2` (stereo not shown) [Example 19, 5-chloro-1-(6-cyano-2,3-dihydro-1H-inden-1-yl)-2-imino-1,2-dihydropyridine-3-carboxamide hydrochloride] it was 94.8%; in that of `C[C@H](c1ccc(F)cc1)n1cc(Cl)cc(C(N)=O)c1=N` [Example 22, 5-chloro-1-[(1R)-1-(4-fluorophenyl)ethyl]-2-imino-1,2-dihydropyridine-3-carboxamide hydrochloride], 96.1%; in that of `C[C@H](c1cccc(C#N)c1)n1cc(Cl)cc(C(N)=O)c1=N` [Example 23, 5-chloro-1-[(1R)-1-(3-cyanophenyl)ethyl]-2-imino-1,2-dihydropyridine-3-carboxamide hydrochloride], 100%.
In the case of `N=c1c(C(N)=O)cc(Cl)cn1C1CCS(=O)(=O)c2ccc(Cl)cc21` (stereo not shown) [Example 30, 5-chloro-1-(6-chloro-1,1-dioxido-3,4-dihydro-2H-thiochromen-4-yl)-2-imino-1,2-dihydropyridine-3-carboxamide hydrochloride] it was 96.9%.
